# Measurements: US20250074891A1 (Anaxis Pharma Pty Ltd., priority 2021, published 2025)
# Assays:
# [1] = molecular target: RIP1 (Homo sapiens (Human), UniProt Q13546); experiment: KINOMEscan binding assay, RIP1; conditions: Table 35
# [2] = molecular target: MLKL (full length) (Homo sapiens (Human), UniProt Q8NB16); experiment: KINOMEscan binding assay, MLKL (full length); conditions: Table 35
# Description: Kinase assays. For most assays, kinase-tagged T7 phage strains were grown in parallel in 24-well blocks in an E. coli host derived from the BL21 strain. E. coli were grown to log-phase and infected with T7 phage from a frozen stock (multiplicity of infection=0.4) and incubated with shaking at 32° C. until lysis (90-150 minutes).
# The Hill Slope was set to −1.
# Sequence of MLKL (full length) (Q8NB16 whole entry): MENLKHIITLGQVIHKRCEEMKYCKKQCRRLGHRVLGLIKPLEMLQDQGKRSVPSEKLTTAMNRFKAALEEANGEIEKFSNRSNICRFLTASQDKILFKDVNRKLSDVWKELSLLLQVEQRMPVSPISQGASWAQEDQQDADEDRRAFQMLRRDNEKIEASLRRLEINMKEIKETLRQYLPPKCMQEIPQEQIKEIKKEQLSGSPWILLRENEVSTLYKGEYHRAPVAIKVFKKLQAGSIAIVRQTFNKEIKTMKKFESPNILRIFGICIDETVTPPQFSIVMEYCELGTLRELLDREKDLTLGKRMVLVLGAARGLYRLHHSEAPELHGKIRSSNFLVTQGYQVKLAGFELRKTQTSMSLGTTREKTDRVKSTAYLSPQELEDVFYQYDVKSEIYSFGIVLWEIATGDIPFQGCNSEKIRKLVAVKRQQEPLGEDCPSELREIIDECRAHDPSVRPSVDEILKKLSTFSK
# Sequence of RIP1 (Q13546 whole entry): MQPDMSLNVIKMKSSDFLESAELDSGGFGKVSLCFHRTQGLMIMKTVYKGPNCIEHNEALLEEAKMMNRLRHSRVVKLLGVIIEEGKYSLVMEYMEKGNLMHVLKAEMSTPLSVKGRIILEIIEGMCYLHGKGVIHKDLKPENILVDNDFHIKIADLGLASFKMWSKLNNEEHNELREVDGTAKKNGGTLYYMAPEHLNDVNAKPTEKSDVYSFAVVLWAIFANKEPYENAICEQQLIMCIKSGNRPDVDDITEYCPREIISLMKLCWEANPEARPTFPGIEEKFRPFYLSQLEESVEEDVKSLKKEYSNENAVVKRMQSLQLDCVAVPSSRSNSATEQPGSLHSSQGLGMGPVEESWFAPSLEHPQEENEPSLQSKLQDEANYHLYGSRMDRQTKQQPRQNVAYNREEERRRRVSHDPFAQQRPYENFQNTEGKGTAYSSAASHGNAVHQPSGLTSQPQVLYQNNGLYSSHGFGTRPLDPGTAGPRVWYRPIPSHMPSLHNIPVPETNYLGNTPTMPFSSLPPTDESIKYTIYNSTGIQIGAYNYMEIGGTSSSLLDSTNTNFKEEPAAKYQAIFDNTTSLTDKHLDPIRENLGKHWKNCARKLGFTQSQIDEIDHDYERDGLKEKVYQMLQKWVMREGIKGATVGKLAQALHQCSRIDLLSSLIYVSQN
Kd [1],Kd [2],Structure (SMILES)
> 30 µM,< 0.01 µM,"CCS(=O)(=O)Nc1ccc(-c2n[nH]c(Nc3ccccn3)c2C(N)=O)cc1 [Compound 131, 3-(4-(ethylsulfonamido)phenyl)-5-(pyridin-2-ylamino)-1H-pyrazole-4-carboxamide]"
> 30 µM,< 0.01 µM,"CC(C)S(=O)(=O)Nc1ccc(-c2n[nH]c(Nc3cccc(C(F)(F)F)n3)c2C(N)=O)cc1 [Compound 54, 3-(4-((1-methylethyl)sulfonamido)phenyl)-5-((6-(trifluoromethyl)pyridin-2-yl)amino)-1H-pyrazole-4-carboxamide]"
> 30 µM,< 0.01 µM,"CC(C)S(=O)(=O)Nc1ccc(-c2n[nH]c(Nc3cnccn3)c2C(N)=O)cc1 [Compound 71, 3-(4-((1-methylethyl)sulfonamido)phenyl)-5-(pyrazin-2-ylamino)-1H-pyrazole-4-carboxamide]"
> 30 µM,< 0.01 µM,"CCS(=O)(=O)Nc1ccc(-c2n[nH]c(Nc3cnc(C(C)(C)C)cn3)c2C(N)=O)cc1 [Compound 181, 5-((5-(tert-butyl)pyrazin-2-yl)amino)-3-(4-(ethylsulfonamido)phenyl)-1H-pyrazole-4-carboxamide]"
> 30 µM,,"CCS(=O)(=O)Nc1ccc(-c2n[nH]c(Nc3cc(C(F)(F)F)ccn3)c2C(N)=O)cc1 [Compound 85, 3-(4-(ethylsulfonamido)phenyl)-5-((4-(trifluoromethyl)pyridin-2-yl)amino)-1H-pyrazole-4-carboxamide]"
> 30 µM,,"CCS(=O)(=O)Nc1ccc(-c2n[nH]c(Nc3cccc(C)n3)c2C(N)=O)cc1 [Compound 94, 3-(4-(ethylsulfonamido)phenyl)-5-((6-methylpyridin-2-yl)amino)-1H-pyrazole-4-carboxamide]"
,< 0.01 µM,"CCS(=O)(=O)Nc1ccc(-c2n[nH]c(Nc3ccc(OC)cn3)c2C(N)=O)cc1 [Compound 88, 3-(4-(ethylsulfonamido)phenyl)-5-((5-methoxypyridin-2-yl)amino)-1H-pyrazole-4-carboxamide]"
> 30 µM,,"CCS(=O)(=O)Nc1ccc(-c2n[nH]c(Nc3cnccn3)c2C(N)=O)cc1OC [Compound 61, 3-(4-(ethylsulfon-amido)-3-methoxy-phenyl)-5-(pyrazin-2-ylamino)-1H-pyrazole-4-carboxamide]"
,< 0.01 µM,"CCS(=O)(=O)Nc1ccc(-c2n[nH]c(Nc3ccnc(OC)c3)c2C(N)=O)cc1 [Compound 121, 3-(4-(ethylsulfonamido)phenyl)-5-((2-methoxypyridin-4-yl)amino)-1H-pyrazole-4-carboxamide]"
> 30 µM,,"NC(=O)c1c(-c2ccc(NS(=O)(=O)C3CCCCC3)cc2)n[nH]c1Nc1cnccn1 [Compound 74, 3-(4-(cyclohexanesulfonamido)phenyl)-5-(pyrazin-2-ylamino)-1H-pyrazole-4-carboxamide]"
> 30 µM,,"NC(=O)c1c(-c2ccc(NS(=O)(=O)Cc3ccccc3)cc2)n[nH]c1Nc1cnccn1 [Compound 77, 3-(4-((phenylmethyl)sulfonamido)phenyl)-5-(pyrazin-2-ylamino)-1H-pyrazole-4-carboxamide]"
> 30 µM,,NC(=O)c1c(-c2ccc(NS(=O)(=O)CC3CCC3)cc2)n[nH]c1Nc1ccccn1 [Compound 134]

# More lines, now with the values behind:
Structure (SMILES),Kd [1],Kd [2]
"NC(=O)c1c(-c2ccc(NS(=O)(=O)CCc3ccccc3)cc2)n[nH]c1Nc1ccccn1 [Compound 130, 3-(4-((2-phenylethyl)sulfonamido)phenyl)-5-(pyridin-2-ylamino)-1H-pyrazole-4-carboxamide]",> 30 µM,
"NC(=O)c1c(-c2ccc(NS(=O)(=O)C3CC3)cc2)n[nH]c1Nc1cccc(C(F)(F)F)n1 [Compound 52, 3-(4-(cyclopropanesulfonamido)phenyl)-5-((6-(trifluoromethyl)pyridin-2-yl)amino)-1H-pyrazole-4-carboxamide]",> 30 µM,< 0.01 µM
"NC(=O)c1c(-c2ccc(NS(=O)(=O)CC(F)(F)F)cc2)n[nH]c1Nc1cccc(C(F)(F)F)n1 [Compound 43, 3-(4-((2,2,2-trifluoroethyl)sulfonamido)phenyl)-5-((6-(trifluoromethyl)pyridin-2-yl)amino)-1H-pyrazole-4-carboxamide]",> 30 µM,< 0.01 µM
"CCS(=O)(=O)Nc1ccc(-c2n[nH]c(Nc3cccc(C(F)(F)F)n3)c2C(N)=O)cc1OCc1cccnc1 [Compound 33, 3-(4-(ethylsulfon-amido)-3-(pyridin-3-ylmethoxy)phenyl)-5-((6-(trifluoro-methyl)pyridin-2-yl)amino)-1H-pyrazole-4-carboxamide]",> 30 µM,
"CCS(=O)(=O)Nc1ccc(-c2n[nH]c(Nc3ccc(OC)nc3)c2C(N)=O)cc1OCc1ccc(F)cc1 [Compound 197, 3-(4-(ethylsulfonamido)-3-((4-fluorobenzyl)oxy)phenyl)-5-((6-methoxypyridin-3-yl)amino)-1H-pyrazole-4-carboxamide]",> 30 µM,< 0.01 µM
"CCS(=O)(=O)Nc1ccc(-c2n[nH]c(Nc3cccc(OCCOC)n3)c2C(N)=O)cc1 [Compound 128, 3-(4-(ethylsulfonamido)phenyl)-5-((6-(2-methoxyethoxy)pyridin-2-yl)amino)-1H-pyrazole-4-carboxamide]",> 30 µM,
"CCS(=O)(=O)Nc1ccc(-c2n[nH]c(Nc3ccnc(OC)c3)c2C(N)=O)cc1OCc1ccc(F)cc1 [Compound 18, 3-(4-(ethylsulfonamido)-3-((4-fluorobenzyl)oxy)phenyl) 5-((2-methoxypyridin-4-yl)amino)-1H-pyrazole-4-carboxamide]",> 30 µM,< 0.01 µM
"NC(=O)c1c(-c2ccc(NS(=O)(=O)Cc3ccc(F)cc3)cc2)n[nH]c1Nc1cccc(C(F)(F)F)n1 [Compound 55, 3-(4-(((4-fluorophenyl)methyl)sulfonamido)phenyl)-5-((6-(trifluoromethyl)pyridin-2-yl)amino)-1H-pyrazole-4-carboxamide]",> 30 µM,
"NC(=O)c1c(-c2ccc(NS(=O)(=O)Cc3cccc(Cl)c3)cc2)n[nH]c1Nc1ccccn1 [Compound 129, 3-(4-(((3-chlorophenyl)methyl)sulfonamido)phenyl)-5-(pyridin-2-ylamino)-1H-pyrazole-4-carboxamide]",> 30 µM,
"CCS(=O)(=O)Nc1ccc(-c2n[nH]c(Nc3ccc4ccccc4n3)c2C(N)=O)cc1 [Compound 89, 3-(4-(ethylsulfonamido)phenyl)-5-(quinolin-2-ylamino)-1H-pyrazole-4-carboxamide]",,< 0.01 µM
"NC(=O)c1c(-c2ccc(NS(=O)(=O)c3ccccc3)cc2)n[nH]c1Nc1ccccn1 [Compound 133, 3-(4-(phenylsulfonamido)phenyl)-5-(pyridin-2-ylamino)-1H-pyrazole-4-carboxamide]",> 30 µM,
"NC(=O)c1c(-c2ccc(NS(=O)(=O)Cc3ccc(Cl)c(Cl)c3)cc2)n[nH]c1Nc1cccc(C(F)(F)F)n1 [Compound 56, 3-(4-((3,4-dichlorophenyl)methylsulfonamido)phenyl)-5-((6-(trifluoromethyl)pyridin-2-yl)amino)-1H-pyrazole-4-carboxamide]",> 30 µM,
"NC(=O)c1c(-c2ccc(NS(=O)(=O)Cc3ccccc3Cl)cc2)n[nH]c1Nc1cccc(C(F)(F)F)n1 [Compound 58, 3-(4-(((2-chlorophenyl)methyl)sulfonamido)phenyl)-5-((6-(trifluoromethyl)pyridin-2-yl)amino)-1H-pyrazole-4-carboxamide]",> 30 µM,
